# According to US8389552B2, “(S)-6-(2-(4-(cyclobutylsulfonyl)-1H-imidazol-1-yl)-3-cyclopentylpropanamido)nicotinic acid useful as a glucokinase activator” (Pfizer Inc., priority 2009, dated 2013):
# Target: T1, Full-length glucokinase (beta cell isoform) (Homo sapiens, UniProt P35557)
# T1 construct: Full-length glucokinase (beta cell isoform) was His-tagged at N-terminus; His tag (N); made in house; host or cells: E. coli BL21(DE3), pBCGK vector
# T1 sequence (P35557 1-465): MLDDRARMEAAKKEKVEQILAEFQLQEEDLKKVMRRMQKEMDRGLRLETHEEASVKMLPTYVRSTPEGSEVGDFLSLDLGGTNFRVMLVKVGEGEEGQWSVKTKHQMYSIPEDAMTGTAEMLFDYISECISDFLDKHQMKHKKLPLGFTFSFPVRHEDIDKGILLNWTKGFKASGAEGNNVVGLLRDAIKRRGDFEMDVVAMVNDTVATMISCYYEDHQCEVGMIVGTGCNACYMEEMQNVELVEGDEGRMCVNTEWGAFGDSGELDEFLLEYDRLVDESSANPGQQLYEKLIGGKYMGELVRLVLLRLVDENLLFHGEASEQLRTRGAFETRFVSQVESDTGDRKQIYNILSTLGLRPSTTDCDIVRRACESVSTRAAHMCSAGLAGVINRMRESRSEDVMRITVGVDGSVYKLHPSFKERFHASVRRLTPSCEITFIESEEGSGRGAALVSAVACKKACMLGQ
# Assay: Glucokinase activation assay (PK/LDH-coupled, NADH depletion at 340 nm)
# Assay type: biochemical
# Conditions: 5 mM glucose, single value or range where N>1; for EC50: 2.5 mM ATP, pH 7.1, room temperature, read-out: EC50; for Emax: % max activation = (Va/Vo−1)×100 from fit, pH 7.1, read-out: Maximum Activation (%)
# Procedure: Full-length glucokinase (beta cell isoform) was His-tagged at N-terminus and purified by a Ni column followed by size exclusion chromatography. A 320 mL column was packed in house using Superdex75 (Amersham Pharmacia, Carlsbad, Calif.) preparation grade resin. Glucose was obtained from Calbiochem (San Diego, Calif.) and other reagents were purchased from Sigma-Aldrich (St. Louis, Mo.).
# All assays were performed in a Corning 384-well plate using Spectramax PLUS spectrophotometer (Molecular Devices, Sunnyvale, Calif.) at room temperature. The final assay volume was 40 ∥L. The buffer conditions used in this assay were as follows: 50 mM HEPES, 5 mM glucose, 2.5 mM ATP, 3.5 mM MgCl2, 0.7 mM NADH, 2 mM dithiothreitol, 1 unit/mL pyruvate kinase/lactate dehydrogenase (PK/LDH), 0.2 mM phosphoenolpyruvate, and 25 mM KCl. The buffer pH was 7.1. The test compound in dimethylsulfoxide solution was added to the buffer and mixed by a plate shaker for 7.5 minutes. The final concentration of dimethylsulfoxide introduced into the assay was 0.25%.
# Glucokinase was added to the buffer mixture to initiate the reaction in the presence and absence of compound. The reaction was monitored by absorbance at 340 nm due to the depletion of NADH. The initial reaction velocity was measured by the slope of a linear time course of 0-300 seconds. The percentage of maximum activation was calculated by the following equation: % Maximum Activation=(Va/Vo−1)×100; wherein each of Va and Vo is defined as the initial reaction velocity in the presence and absence of the tested compound, respectively.
# The glucokinase activities were measured as a function of compound concentrations.
Structure (SMILES),EC50 [µM],Emax [%]
"Cc1ccc(NC(=O)[C@H](CC2CCCO2)n2cnc(C(F)(F)F)c2)nc1 (mixture of isomers) [Example 82, (2S)—N-(5-methylpyridin-2-yl)-3-(tetrahydrofuran-2-yl)-2-(4-(trifluoromethyl)-1H-imidazol-1-yl)propanamide]",5,115
"Cc1ccc(NC(=O)[C@H](CC2CCCC2)n2cc(S(=O)(=O)C(C)C)cn2)nc1 [Example 1, (S)-3-cyclopentyl-2-(4-(isopropylsulfonyl)-1H-pyrazol-1-yl)-N-(5-methylpyridin-2-yl)propanamide]",0.3 to 0.6,38 to 50
"CC(C)S(=O)(=O)c1cnn([C@@H](CC2CCCC2)C(=O)Nc2cnccn2)c1 [Example 2, (S)-3-cyclopentyl-2-(4-(isopropylsulfonyl)-1H-pyrazol-1-yl)-N-(pyrazin-2-yl)propanamide]",9 to 16.5,84 to 90
"CC(C)S(=O)(=O)c1cnn([C@@H](CC2CCCC2)C(=O)Nc2ccc(C(F)(F)F)cn2)c1 [Example 3, (S)-3-cyclopentyl-2-(4-(isopropylsulfonyl)-1H-pyrazol-1-yl)-N-(5-(trifluoromethyl)pyridin-2-yl)propanamide]",0.7 to 1.9,15 to 23
"CC(C)S(=O)(=O)c1cnn([C@@H](CC2CCCC2)C(=O)Nc2ccncn2)c1 [Example 4, (S)-3-cyclopentyl-2-(4-(isopropylsulfonyl)-1H-pyrazol-1-yl)-N-(pyrimidin-4-yl)propanamide]",0.9 to 2.2,57 to 90
"CC(C)S(=O)(=O)c1cnn([C@@H](CC2CCCC2)C(=O)Nc2ncccn2)c1 [Example 5, (S)-3-cyclopentyl-2-(4-(isopropylsulfonyl)-1H-pyrazol-1-yl)-N-(pyrimidin-2-yl)propanamide]",> 100,
"Cc1cnc(NC(=O)[C@H](CC2CCCC2)n2cc(S(=O)(=O)C(C)C)cn2)cn1 [Example 6, (S)-3-cyclopentyl-2-(4-(isopropylsulfonyl)-1H-pyrazol-1-yl)-N-(5-methylpyrazin-2-yl)propanamide]",4.8 to 5.6,70 to 76
"CC(C)S(=O)(=O)c1cnn([C@@H](CC2CCCC2)C(=O)Nc2ccn(C)n2)c1 [Example 7, (S)-3-cyclopentyl-2-(4-(isopropylsulfonyl)-1H-pyrazol-1-yl)-N-(1-methyl-1H-pyrazol-3-yl)propanamide]",3.5 to 6,39 to 40
"Cc1ccc(NC(=O)[C@H](CC2CCCC2)n2cc(S(C)(=O)=O)cn2)nc1 [Example 8, (S)-3-cyclopentyl-N-(5-methylpyridin-2-yl)-2-(4-(methylsulfonyl)-1H-pyrazol-1-yl)propanamide]",3.8,100
"Cn1ccc(NC(=O)[C@H](CC2CCCC2)n2cc(S(C)(=O)=O)cn2)n1 [Example 9, (S)-3-cyclopentyl-N-(1-methyl-1H-pyrazol-3-yl)-2-(4-(methylsulfonyl)-1H-pyrazol-1-yl)propanamide]",55,174
"CS(=O)(=O)c1cnn([C@@H](CC2CCCC2)C(=O)Nc2ccc(C(F)(F)F)cn2)c1 [Example 10, (S)-3-cyclopentyl-2-(4-(methylsulfonyl)-1H-pyrazol-1-yl)-N-(5-(trifluoromethyl)pyridin-2-yl)propanamide]",4.8,56
"CCn1ccc(NC(=O)[C@H](CC2CCCC2)n2cc(S(C)(=O)=O)cn2)n1 [Example 11, (S)-3-cyclopentyl-N-(1-ethyl-1H-pyrazol-3-yl)-2-(4-(methylsulfonyl)-1H-pyrazol-1-yl)propanamide]",32,110
"CS(=O)(=O)c1cnn([C@@H](CC2CCCC2)C(=O)Nc2ccn(Cc3ccccc3)n2)c1 [Example 12, (S)—N-(1-benzyl-1H-pyrazol-3-yl)-3-cyclopentyl-2-(4-(methylsulfonyl)-1H-pyrazol-1-yl)propanamide]",> 100,
"CS(=O)(=O)c1cnn([C@@H](CC2CCCC2)C(=O)Nc2ccncn2)c1 [Example 13, (S)-3-cyclopentyl-2-(4-(methylsulfonyl)-1H-pyrazol-1-yl)-N-(pyrimidin-4-yl)propanamide]",32,100
"Cc1cnc(NC(=O)[C@H](CC2CCCC2)n2cc(S(C)(=O)=O)cn2)cn1 [Example 14, (S)-3-cyclopentyl-N-(5-methylpyrazin-2-yl)-2-(4-(methylsulfonyl)-1H-pyrazol-1-yl)propanamide]",11,122
"CC(C)S(=O)(=O)c1cnn([C@@H](CC2CCCC2)C(=O)Nc2ccon2)c1 [Example 15, (S)-3-cyclopentyl-2-(4-(isopropylsulfonyl)-1H-pyrazol-1-yl)-N-(isoxazol-3-yl)propanamide]",60,89
"CC(C)S(=O)(=O)c1cnn([C@@H](CC2CCCC2)C(=O)Nc2ccccn2)c1 [Example 16, (S)-3-cyclopentyl-2-(4-(isopropylsulfonyl)-1H-pyrazol-1-yl)-N-(pyridin-2-yl)propanamide]",1.9,48
"CC(C)S(=O)(=O)c1cnn([C@@H](CC2CCCC2)C(=O)Nc2ccc3ccccc3n2)c1 [Example 17, (S)-3-cyclopentyl-2-(4-(isopropylsulfonyl)-1H-pyrazol-1-yl)-N-(quinolin-2-yl)propanamide]",8.2,23
"CCn1ccc(NC(=O)[C@H](CC2CCCC2)n2cc(S(=O)(=O)C(C)C)cn2)n1 [Example 18, (S)-3-cyclopentyl-N-(1-ethyl-1H-pyrazol-3-yl)-2-(4-(isopropylsulfonyl)-1H-pyrazol-1-yl)propanamide]",15.7,24
"CC(C)S(=O)(=O)c1cnn([C@@H](CC2CCCC2)C(=O)Nc2ccn(Cc3ccccc3)n2)c1 [Example 19, (S)—N-(1-benzyl-1H-pyrazol-3-yl)-3-cyclopentyl-2-(4-(isopropylsulfonyl)-1H-pyrazol-1-yl)propanamide]",1.3 to 1.7,33 to 39
"CCS(=O)(=O)c1cnn([C@@H](CC2CCCC2)C(=O)Nc2ccn(C)n2)c1 [Example 20, (S)-3-cyclopentyl-2-(4-(ethylsulfonyl)-1H-pyrazol-1-yl)-N-(1-methyl-1H-pyrazol-3-yl)propanamide]",7.2,80
"CCS(=O)(=O)c1cnn([C@@H](CC2CCCC2)C(=O)Nc2ccc(C)cn2)c1 [Example 21, (S)-3-cyclopentyl-2-(4-(ethylsulfonyl)-1H-pyrazol-1-yl)-N-(5-methylpyridin-2-yl)propanamide]",2.9,65
"CCS(=O)(=O)c1cnn([C@@H](CC2CCCC2)C(=O)Nc2cnc(C)cn2)c1 [Example 22, (S)-3-cyclopentyl-2-(4-(ethylsulfonyl)-1H-pyrazol-1-yl)-N-(5-methylpyrazin-2-yl)propanamide]",25,144
"CS(=O)(=O)c1cnn([C@@H](CC2CCCC2)C(=O)Nc2ccc(C(=O)O)cn2)c1 [Example 24, (S)-6-(3-cyclopentyl-2-(4-(methylsulfonyl)-1H-pyrazol-1-yl)propanamido)nicotinic acid]",7,145
"Cc1ccc(NC(=O)[C@H](CC2CCCC2)n2cnc(S(C)(=O)=O)n2)nc1 [Example 25, (S)-3-cyclopentyl-N-(5-methylpyridin-2-yl)-2-(3-(methylsulfonyl)-1H-1,2,4-triazol-1-yl)propanamide]",3.9,116
"Cn1ccc(NC(=O)[C@H](CC2CCCC2)n2cnc(S(C)(=O)=O)n2)n1 [Example 26, (S)-3-cyclopentyl-N-(1-methyl-1H-pyrazol-3-yl)-2-(3-(methylsulfonyl)-1H-1,2,4-triazol-1-yl)propanamide]",33,89
"Cc1cnc(NC(=O)[C@H](CC2CCCC2)n2cnc(S(C)(=O)=O)n2)cn1 [Example 27, (S)-3-cyclopentyl-N-(5-methylpyrazin-2-yl)-2-(3-(methylsulfonyl)-1H-1,2,4-triazol-1-yl)propanamide]",22,120
"Cc1ccc(NC(=O)[C@H](CC2CCCC2)n2cnc(S(=O)(=O)C(C)C)c2)nc1 [Example 28, (S)-3-cyclopentyl-2-(4-(isopropylsulfonyl)-1H-imidazol-1-yl)-N-(5-methylpyridin-2-yl)propanamide]",> 100,
